In patent US7728028B2, “Substituted imidazoline compounds” (Gruenenthal GmbH, priority 2005, dated 2010):

target: T1, human μ-opiate receptor (Homo sapiens, UniProt P35372); assay: Affinity for the human μ-opiate receptor ([3H]-naloxone displacement, SPA); conditions: Table 2, Examples 11-161; test substance 1 μmole/l; inhibition of specific [3H]-naloxone binding; CHO-K1 membranes; read-out: μ-Opioid receptor, % inhibition [1 μM]
T1 construct: purchased PerkinElmer Life Sciences, Zaventem, Belgium RB-HOM; host or cells: CHO-K1 cells (recombinant expression; membrane preparation)
T1 sequence (P35372 whole entry): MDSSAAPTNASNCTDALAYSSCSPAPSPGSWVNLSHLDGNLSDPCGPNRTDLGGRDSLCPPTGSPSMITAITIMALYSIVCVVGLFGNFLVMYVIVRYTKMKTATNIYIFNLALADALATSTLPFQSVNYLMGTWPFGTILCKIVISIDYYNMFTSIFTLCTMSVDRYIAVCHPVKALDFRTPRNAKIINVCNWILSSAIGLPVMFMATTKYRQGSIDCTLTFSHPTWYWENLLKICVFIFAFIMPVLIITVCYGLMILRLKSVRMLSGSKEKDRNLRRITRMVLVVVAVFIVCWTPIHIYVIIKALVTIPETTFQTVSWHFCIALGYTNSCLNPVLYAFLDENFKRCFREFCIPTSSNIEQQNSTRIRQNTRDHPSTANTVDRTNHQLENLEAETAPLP
Protocol: Investigations on the Efficacy of the Compounds According to the Invention Method for Determining the Affinity for the Human μ-Opiate Receptor
The receptor affinity for the human μ-opiate receptor is determined in a homogeneous batch in microtiter plates. For this purpose dilution series of the substances to be tested are incubated with a receptor membrane preparation (15-40 μg protein/250 μl incubation batch) of CHO-K1 cells, which express the human μ-opiate receptor (RB-HOM receptor membrane preparation from PerkinElmer Life Sciences, Zaventem, Belgium), in the presence of 1 nmole/l of the radioactive ligand [^3H]-naloxone (NET719, PerkinElmer Life Sciences company, Zaventem, Belgium) and 1 mg WGA-SPA beads (wheat germ agglutinin SPA beads from Amersham/Pharmacia, Freiburg, Germany) in a total volume of 250 μl for 90 minutes at room temperature. 50 mmole/l of Tris-HCl supplemented with 0.06% bovine serum albumin is used as incubation buffer. In order to determine the non-specific binding, 100 μmole/l of naloxone is additionally added. After the end of the 90 minutes' incubation time the microtiter plates are centrifuged for 20 minutes at 1000 g and the radioactivity is measured in a beta counter (Microbeta-Trilux, PerkinElmer Wallac, Freiburg, Germany). The percentage displacement of the radioactive ligand from its binding to the human μ-opiate receptor at a concentration of the test substances of 1 μmole/l is determined and is given as percentage inhibition of the specific binding.

Compared with `CCCN1C=NC(CC(C)C)(C(=O)OC)C1C1CCC(C(c2ccc(Cl)cc2)N(C)C)CC1` (centres unmarked) [Example 24, 5-{4-[(4-chlorophenyl)-dimethylaminomethyl]-cyclohexyl}-4-isobutyl-1-propyl-4,5-dihydro-1H-imidazole-4-carboxylic acid methyl ester], `COC(=O)C1(CC(C)C)N=CN(CCc2ccccc2)C1C1CCC(C(c2ccc(Cl)cc2)N(C)C)CC1` (centres unmarked) [Example 40, 5-{4-[(4-chlorophenyl)-dimethylaminomethyl]-cyclohexyl}-4-isobutyl-1-phenethyl-4,5-dihydro-1H-imidazole-4-carboxylic acid methyl ester] is higher in inhibition at 1 µM: 89% for the first, 95% for the second.

First: COC(=O)CCC1(C(=O)OC)N=CN(CCc2ccccc2)C1CC1CCC(C(CCc2ccccc2)N(C)C)CC1 (centres unmarked) [Example 84, 5-[4-(1-dimethylamino-3-phenylpropyl)-cyclohexylmethyl]-4-(2-methoxycarbonylethyl)-1-phenethyl-4,5-dihydro-1H-imidazole-4-carboxylic acid methyl ester]
Second: COC(=O)CCC1(C(=O)OC)N=CN(CCc2ccccc2)C1CC1CCC(C(c2ccc(F)cc2)N(C)C)CC1 (centres unmarked) [Example 83, 5-{4-[dimethylamino-(4-fluorophenyl)-methyl]-cyclohexylmethyl}-4-(2-methoxycarbonylethyl)-1-phenethyl-4,5-dihydro-1H-imidazole-4-carboxylic acid methyl ester]
The inhibition at 1 µM of the first is lower: 75% for the first, 77% for the second.

First: CCCCN1C=NC(CCC(=O)OC)(C(=O)OC)C1C1CCC(C(c2cccc(F)c2)N(C)C)CC1 (centres unmarked) [Example 65, 1-butyl-5-{4-[dimethylamino-(3-fluorophenyl)-methyl]-cyclohexyl}-4-(2-methoxycarbonylethyl)-4,5-dihydro-1H-imidazole-4-carboxylic acid methyl ester]
Second: CCCCC1(C(=O)OC)N=CN(C2CCCCC2)C1C1CCC(C(c2cccc(F)c2)N(C)C)CC1 (centres unmarked) [Example 13, 4-butyl-1-cyclohexyl-5-{4-[dimethylamino-(3-fluorophenyl)-methyl]-cyclohexyl}-4,5-dihydro-1H-imidazole-4-carboxylic acid methyl ester]
The inhibition at 1 µM of the first is lower: 78% for the first, 94% for the second.

Compared with `CCCC1(C(=O)OC)N=CN(Cc2ccccc2)C1CC1CCC(C(c2cccc(F)c2)N(C)C)CC1` (centres unmarked) [Example 138, 1-benzyl-5-{4-[dimethylamino-(3-fluorophenyl)-methyl]-cyclohexylmethyl}-4-propyl-4,5-dihydro-1H-imidazole-4-carboxylic acid methyl ester], `CCCC1(C(=O)OC)N=CN(CCc2ccccc2)C1CC1CCC(C(c2cccc(F)c2)N(C)C)CC1` (centres unmarked) [Example 129, 5-{4-[dimethylamino-(3-fluorophenyl)-methyl]-cyclohexylmethyl}-1-phenethyl-4-propyl-4,5-dihydro-1H-imidazole-4-carboxylic acid methyl ester] is lower in inhibition at 1 µM: 101% for the first, 93% for the second.

Going from `CCCCN1C=NC(CCC)(C(=O)OC)C1CC1CCC(C(c2ccc(F)cc2)N(C)C)CC1` (centres unmarked) [Example 125, 1-butyl-5-{4-[dimethylamino-(4-fluorophenyl)-methyl]-cyclohexylmethyl}-4-propyl-4,5-dihydro-1H-imidazole-4-carboxylic acid methyl ester] to `CCCCN1C=NC(CCCC)(C(=O)OC)C1CC1CCC(C(c2ccc(Cl)cc2)N(C)C)CC1` (centres unmarked) [Example 36, 1,4-dibutyl-5-{4-[(4-chlorophenyl)-dimethylaminomethyl]-cyclohexylmethyl}-4,5-dihydro-1H-imidazole-4-carboxylic acid methyl ester], the inhibition at 1 µM rises from 91% to 97%.

Compared with `COC(=O)C1(Cc2ccc(Cl)cc2)N=CN(Cc2ccccc2)C1CC1CCC(C(c2ccc(Cl)cc2)N(C)C)CC1` (centres unmarked) [Example 113, 1-benzyl-4-(4-chlorobenzyl)-5-{4-[(4-chlorophenyl)-dimethylaminomethyl]-cyclohexylmethyl}-4,5-dihydro-1H-imidazole-4-carboxylic acid methyl ester], `COC(=O)C1(Cc2ccc(Cl)cc2)N=CN(Cc2ccccc2)C1C1CCC(C(c2ccc(Cl)cc2)N(C)C)CC1` (centres unmarked) [Example 49, 1-benzyl-4-(4-chlorobenzyl)-5-{4-[(4-chlorophenyl)-dimethylaminomethyl]-cyclohexyl}-4,5-dihydro-1H-imidazole-4-carboxylic acid methyl ester] is lower in inhibition at 1 µM: 92% for the first, 84% for the second.

Compared with `CCC(C)C1(C(=O)OC)N=CN(C2CCCCC2)C1CC1CCC(C(c2ccc(F)cc2)N(C)C)CC1` (centres unmarked) [Example 152, 4-sec-butyl-1-cyclohexyl-5-{4-[dimethylamino-(4-fluorophenyl)-methyl]-cyclohexylmethyl}-4,5-dihydro-1H-imidazole-4-carboxylic acid methyl ester], `CCCC1(C(=O)OC)N=CN(C2CCCCC2)C1CC1CCC(C(c2cccc(F)c2)N(C)C)CC1` (centres unmarked) [Example 102, 1-cyclohexyl-5-{4-[dimethylamino-(3-fluorophenyl)-methyl]-cyclohexylmethyl}-4-propyl-4,5-dihydro-1H-imidazole-4-carboxylic acid methyl ester] is lower in inhibition at 1 µM: 93% for the first, 91% for the second.

Compared with `CCCN1C=NC(CSCc2ccccc2)(C(=O)OC)C1C1CCC(C(c2cccc(F)c2)N(C)C)CC1` (centres unmarked) [Example 58, 4-benzylsulfanylmethyl-5-{4-[dimethylamino-(3-fluorophenyl)-methyl]-cyclohexyl}-1-propyl-4,5-dihydro-1H-imidazole-4-carboxylic acid methyl ester], `CCCCC1(C(=O)OC)N=CN(CCc2ccccc2)C1C1CCC(C(c2ccc(Cl)cc2)N(C)C)CC1` (centres unmarked) [Example 42, 4-butyl-5-{4-[(4-chlorophenyl)-dimethylaminomethyl]-cyclohexyl}-1-phenethyl-4,5-dihydro-1H-imidazole-4-carboxylic acid methyl ester] is higher in inhibition at 1 µM: 81% for the first, 94% for the second.

First: CCCCN1C=NC(CCC)(C(=O)OC)C1CC1CCC(C(CCc2ccccc2)N(C)C)CC1 (centres unmarked) [Example 127, 1-butyl-5-[4-(1-dimethylamino-3-phenylpropyl)-cyclohexylmethyl]-4-propyl-4,5-dihydro-1H-imidazole-4-carboxylic acid methyl ester]
Second: CCCCC1(C(=O)OC)N=CN(Cc2ccccc2)C1CC1CCC(C(c2ccc(Cl)cc2)N(C)C)CC1 (centres unmarked) [Example 114, 1-benzyl-4-butyl-5-{4-[(4-chlorophenyl)-dimethylaminomethyl]-cyclohexylmethyl}-4,5-dihydro-1H-imidazole-4-carboxylic acid methyl ester]
The inhibition at 1 µM of the first is lower: 74% for the first, 86% for the second.

Going from `CCCN1C=NC(Cc2ccc(Cl)cc2)(C(=O)OC)C1C1CCC(C(c2ccc(Cl)cc2)N(C)C)CC1` (centres unmarked) [Example 25, 4-(4-chlorobenzyl)-5-{4-[(4-chlorophenyl)-dimethylaminomethyl]-cyclohexyl}-1-propyl-4,5-dihydro-1H-imidazole-4-carboxylic acid methyl ester] to `COC(=O)C1(Cc2ccc(Cl)cc2)N=CN(C2CCCCC2)C1C1CCC(C(c2cccc(F)c2)N(C)C)CC1` (centres unmarked) [Example 12, 4-(4-chlorobenzyl)-1-cyclohexyl-5-{4-[dimethylamino-(3-fluorophenyl)-methyl]-cyclohexyl}-4,5-dihydro-1H-imidazole-4-carboxylic acid methyl ester], the inhibition at 1 µM falls from 83% to 73%.
